Results reported in PMC11816618, “Pharmacokinetic profile and in vivo anticancer efficacy of anagrelide administered subcutaneously in rodents” (Drug Delivery, 2025).
Like-named read-outs stand apart in the source and are kept apart here.

How the values were obtained:
[1] = Tolerability (body weight, well-being) during the UZLX-GIST2B efficacy experiment
Method: Before and during the treatments, tumor volumes (mm^3) were determined by three dimensional measurements (x × y × z) with a digital caliper. The treatments started after tumors reached an average volume between 150 and 300 mm^3, followed by randomizing the mice to the four treatment groups with an even tumor volume distribution per group. PO-treated mice received 2.5 mg/kg of ANA BID. Mice in the control group were injected with 50 µL of miglyol vehicle, and mice receiving SC ANA were injected Q4D with 35 mg/kg or 70 mg/kg into the loose skin between the shoulder blades (days 1, 5, and 9). During the experiment, tumor volumes were measured on days 1, 4, 8, and 11. In addition, animal well-being was visually monitored, and body weights were measured every day. Absolute tumor volume changes between the first and last days were considered as one of the measurements of treatment efficacy. […] Tumors were collected, weighed, and snap-frozen in liquid nitrogen, and livers of the mice were evaluated by visual inspection.
Statistical analyses were performed using IBM SPSS Statistics 28.0.0.0 (Chicago, IL). p Values below .05 were considered statistically significant. Statistical significance of body weights, tumor volumes, and tumor weights between the treatment groups was analyzed using the independent samples Kruskal–Wallis test and Dunn’s pairwise tests adjusted with Bonferroni’s correction. […]

[2] = PK comparison between three administration routes (IV, PO, SC), plasma LC-MS/MS; type: in vivo, Sprague-Dawley rats; conditions: for Vd/F: read-out: Vz/F
Method: The rats were purchased from SPF Biotechnology Co. Ltd. (Beijing, China). Animals were acclimated to the test facility for at least three days, during which their general health was checked by veterinary staff or other authorized personnel. Animals were kept in polycarbonate cages containing absorbent corncob bedding, with a maintained temperature range of +20-25 °C and a 12-h light/dark cycle. Animals had access to food and drinking water ad libitum during acclimation and the experiment. At the end of the study, the rats were euthanized by exposure to an increasing concentration of CO2. […] The SC formulation was prepared by dissolving micronized ANA (5 μm particle size) in an oily triglyceride ester of saturated caprylic and capric fatty acids and glycerol (Miglyol® 810 N, IOI Oleo GmbH, Hamburg, Germany). […] To evaluate plasma concentration-time profiles, blood samples were collected from the jugular vein in EDTA tubes and stored at -70 °C until further analysis. […] In the second PK analysis in rats with a longer follow-up time, blood samples were collected at 0, 30 min, 1 […], and 56 d after dosage. SD rat plasma was analyzed for ANA, 3-OH-ANA, and RL603 concentrations by Pharmaron (Beijing, China). ANA, 3-hydroxy-anagrelide (CAS No. 733043-41-9, Cat. No. sc-206647, Santa Cruz Biotechnology, Inc., Dallas, TX), and RL603 (CAS No. 327602-34-6, Cat. No. sc-391661, Santa Cruz Biotechnology, Inc., Dallas, TX) were used as reference items in calibration standards and quality control (QC) samples. The HPLC and the MS/MS (LCMS-8060) instruments were both from SHIMADZU (Kyoto, Japan), and the column used was a Raptor Biphenyl column (2.7 μm, 50 × 2.1 mm, Restek, Bellefonte, PA). The desired serial concentrations of working solutions were achieved by diluting analyte stock solution with 50% acetonitrile in water. […] These QC samples were prepared on the day of analysis in the same way as calibration standards. Carbamazepine (CAS No. 298-46-4, Sigma-Aldrich, St. Louis, MO) was used as an internal standard for all analytes. Altogether, 55 μL of standards, 55 μL of QC samples, and 55 μL of test samples (comprising 50 μL of plasma and 5 μL of blank solution) were added to 200 μL of acetonitrile containing an internal standard mixture to precipitate protein. The samples were then vortexed for 30 seconds. After centrifugation at 4000 × g (+4 °C) for 5 min, the supernatant was diluted threefold with water, and 2 μL of the diluted supernatant was injected into the LC/MS/MS system for quantitative analysis. The transitions were 256.00-198.90 m/z for anagrelide hydrochloride, 272.00-198.95 m/z for 3-hydroxy anagrelide, 216.00-198.95 m/z for RL603, and 237.20-194.10 m/z for carbamazepine. […] Plasma drug concentration-time profiles were drawn by the average plasma concentrations at specific time points using Microsoft Excel (Redmond, WA). […] Certara, Princeton, NJ) software. Averages of each variable were used when PK values were compared.

[3] = SC 1.0 mg/kg vs IV 0.5 mg/kg, SD rats
[4] = Sprague-Dawley, rat, plasma, single ANA dose 0.5 mg/kg IV, male SD rats, n = 3, mean ± SD
[5] = Sprague-Dawley, rat, plasma, single ANA dose 1.0 mg/kg SC in miglyol, male SD rats, n = 5, mean ± SD
[6] = Sprague-Dawley, rat, plasma, single ANA dose 2.5 mg/kg PO, male SD rats, n = 3, mean ± SD
[7] = Sprague-Dawley, rat, analyte in plasma after single ANA dose 0.5 mg/kg IV, male SD rats, n = 3, mean ± SD
[8] = Sprague-Dawley, rat, analyte in plasma after single ANA dose 1.0 mg/kg SC in miglyol, male SD rats, n = 5, mean ± SD
[9] = Sprague-Dawley, rat, analyte in plasma after single ANA dose 2.5 mg/kg PO, male SD rats, n = 3, mean ± SD

O=C1CN2Cc3c(ccc(Cl)c3Cl)N=C2N1 [Anagrelide, imidazo‐[2,1‐b] quinazolin‐2[3H]‐one, 6,7‐dichloro‐1,5‐dihydro, monohydro‐chloride]
relative body weight ([1]; 2.5 mg/kg PO BID, 11 days, still in the acceptable range, p = .016): significantly lower relative body weights
finding at the injection site ([1]; 35 or 70 mg/kg SC Q4D in miglyol): drug precipitates near the injection site
AUClast lower with SC than with IV [2, 3]: 36%
increase of T1/2 with SC administration compared to IV [2, 3]: 25 fold
MRT inf [2, 4]: 0.51 ± 0.08 h
clearance [2, 4]: 31.9 ± 2.52 mL/min/kg
Vd ([2]; Sprague-Dawley, rat, plasma, single ANA dose 0.5 mg/kg IV, male SD rats, n = 3, mean ± SD, read-out: Vss): 0.97 ± 0.1 L/kg
CL/F [2, 5]: 101 ± 37.4 mL/min/kg
MRT inf [2, 5]: 48.1 ± 22.7 h
bioavailability [2, 5]: 33.5 ± 9.79%
Vd/F [2, 5]: 218 ± 149 L/kg
CL/F [2, 6]: 718 ± 125 mL/min/kg
MRT inf [2, 6]: 6.38 ± 1.33 h
bioavailability [2, 6]: 4.19 ± 0.7%
Vd/F [2, 6]: 634 ± 338 L/kg
AUC(0-inf) [2, 7]: 262 ± 19.9 ng·h/mL
AUC(0-t) [2, 7]: 261 ± 19.8 ng·h/mL
Cmax [2, 7]: 497 ± 17.5 ng/mL
half-life [2, 7]: 1.09 ± 0.22 h
AUC(0-inf) [2, 8]: 187 ± 62 ng·h/mL
AUC(0-t) [2, 8]: 167 ± 57.1 ng·h/mL
Cmax [2, 8]: 12.4 ± 3.14 ng/mL
half-life [2, 8]: 27.3 ± 24.4 h
AUC(0-inf) [2, 9]: 59.3 ± 9.49 ng·h/mL
AUC(0-t) [2, 9]: 51.4 ± 7.09 ng·h/mL
Cmax [2, 9]: 18 ± 2.59 ng/mL
half-life [2, 9]: 10.1 ± 4.93 h
time to compound elimination from plasma ([2]; after IV 0.5 mg/kg, SD rats): ≤ 6 h
decrease of plasma concentrations by the 8-h time point ([2]; after PO 2.5 mg/kg, SD rats): approximately 90%
time point after which plasma concentrations were no longer detectable ([2]; after SC 1.0 mg/kg, SD rats, except a few irregular observations near the quantification limit): 72 h
Tmax ([2]; analyte in plasma after single ANA dose 1.0 mg/kg SC in miglyol, male SD rats, n = 5, mean ± SD, 1 mg/kg): 0.80 ± 0.27 h
Tmax ([2]; male, Sprague-Dawley, rat, plasma, iv, 0.5 mg/kg, analyte in plasma after single ANA dose 0.5 mg/kg IV, male SD rats, n = 3, mean ± SD, read-out: Tmax): 0.083 h
Tmax ([2]; male, Sprague-Dawley, rat, plasma, po, 2.5 mg/kg, analyte in plasma after single ANA dose 2.5 mg/kg PO, male SD rats, n = 3, mean ± SD, read-out: Tmax): 1 h
Tmax ([2]; male, Sprague-Dawley, rat, plasma, sc, 1 mg/kg, analyte in plasma after single ANA dose 1.0 mg/kg SC in miglyol, male SD rats, n = 5, mean ± SD, read-out: Tmax): 1 h
